Results as given in patent publication US3997549A, “N-arylsulfenylated derivatives of benzofuranyl methylcarbamates” (priority 1973, dated 1976).
In brackets after ≈: the same amount, converted by molar mass. Read-outs that look alike come from different tables or passages of the source.

Key:
granary weevil [1] = assay: Residual contact activity, granary weevil; conditions: Sitophilus granarius, 48 h, read-out: % Kill, GW (residual contact)
granary weevil [2] = assay: Initial contact activity, granary weevil; conditions: Sitophilus granarius, 48 h, read-out: % Kill, GW (initial contact)
southern army worm [3] = assay: Residual contact activity, southern army worm; conditions: 1250 ppm; 7 days; 2880 min
milkweed bug [4] = assay: Initial contact activity, milkweed bug; conditions: Oncopeltus fasciatus, 48 h, read-out: % Kill, MWB (initial contact)
two-spotted spider mite [5] = assay: Residual contact activity, two-spotted spider mite; conditions: Tetranychus urticae, 48 h, read-out: % Kill, SM (residual contact)
Mexican bean beetle [6] = assay: Initial contact activity, Mexican bean beetle; conditions: Epilachna varivestis, 48 h, read-out: % Kill, BB (initial contact)
pea aphid [7] = assay: whole plant or invertebrate; conditions: Acyrthosiphon pisum, 48 h, read-out: % Kill, PA (systemic)
milkweed bug [8] = assay: Residual contact activity, milkweed bug; conditions: Oncopeltus fasciatus, 48 h, read-out: % Kill, MWB (residual contact)
Mexican bean beetle [9] = assay: Residual contact activity, Mexican bean beetle; conditions: Epilachna varivestis, 48 h, read-out: % Kill, BB (residual contact)
southern army worm [10] = assay: Initial contact activity, southern army worm; conditions: 1250 ppm, 48 h exposure
confused flour beetle [11] = assay: Residual contact activity, confused flour beetle; format: in vivo; conditions: Tribolium confusum, 48 h; 1250 ppm; 7 days; read-out: % Kill, FB (residual contact)
Experimental: (§1) Initial Contact Activity: One-half gram of test compound was dissolved in 40 ml of acetone and this solution was dispersed in 360 ml of water containing one drop of isooctyl phenyl polyethoxyethanol. An aliquot of this solution was diluted with water to provide a solution containing 1250 ppm of active ingredient. Test organisms and techniques were as follows: The activities against the Mexican bean beetle (Epilachna varivestis Muls.) and the southern army worm (Prodenia eridania [Cram.]) were evaluated by dipping the leaves of pinto bean plants into the test solution and infesting the leaves with the appropriate immature form insects when the foliage had dried; the activity against the pea aphid (Macrosiphum pisi [Harris]) was evaluated on broad bean plants whose leaves were dipped before infestation with adult aphids; the activity against the two-spotted spider mite (Tetranychus urticae [L.]) was evaluated on pinto bean plants whose leaves were dipped after infestation with adult mites; the activities against the milkweed bug (Oncopeltus fascinatus [Dallas]) and the plum curculio (Conotrachelus nenuphar [Herbst]) were evaluated by spraying the test solutions into glass dishes containing the adult insects; the activities against the granary weevil (Sitophilus granarius [L.]) and the confused flour beetle (Tribolium confusum [duVal]) were evaluated by introducing the insects into glass dishes which had been previously sprayed with test solution and allowed to dry. All organisms in the test were maintained in a holding room at 80° F. and 50% relative humidity for an exposure period of forty-eight hours. At this time the number of dead and living insects were counted and the percent kill was calculated.
The residual contact activity of the compounds was determined on the same organisms using the technique described above, except that in each case the treated surface was allowed to dry and was exposed to normal light and air for seven days before introduction of the mites or insects. The compounds show a high order of residual activity toward the test insects.

Mexican bean beetle [12] = assay: whole plant or invertebrate; conditions: Epilachna varivestis, 48 h, read-out: % Kill, BB (systemic)
two-spotted spider mite [13] = assay: Initial contact activity, two-spotted spider mite; conditions: Tetranychus urticae, 48 h, read-out: % Kill, SM (initial contact)
plum curculio [14] = assay: Residual contact activity, plum curculio; conditions: Conotrachelus nenuphar, 48 h, read-out: % Kill, PC (residual contact)
two-spotted spider mite [15] = assay: whole plant or invertebrate; conditions: Tetranychus urticae, 48 h, read-out: % Kill, SM (systemic)
Culex fatigans = assay: whole plant or invertebrate; conditions: Culex quinquefasciatus, 24 h, read-out: Mosquitoes LC50
Experimental: The appropriate amount of stock solution was added with stirring to 100 ml of tap water and 20-25 fourth instar larvae of Culex fatigans were placed in the solution. After twenty-four hours, the counts were taken. Larvae not able to rise to the surface on touch were counted as dead. Each concentration was run in duplicate and each material was run on two or three different days. The average percent mortality was plotted against the logarithm of the concentration (in ppm) and the LC50 value determined by inspection.

in vivo = conditions: mouse, po
Experimental: Acute oral toxicity of the compounds of the present invention to mice was determined after the manner of Hollingworth, Fukuto, and Metcalf in J. Agr. […] A dose of 0.25 ml of each solution was administered to each of four female white Swiss mice using the "bolus" - tipped syringe. […] Final mortality determinations were made forty-eight hours after treatment.

southern army worm [16] = conditions: 2880 min
houseflies = assay: whole plant or invertebrate; conditions: Musca domestica, topical, 24 h, read-out: Houseflies LD50
Experimental: Toxicity of the compounds of the present invention to houseflies was tested using the technique described by March and Metcalf in Bull. Calif. State Dept. Agr. […] Adult female houseflies were treated with one drop of acetone solution, applied to the prothorax, using a syringe calibrated to deliver 1.00 ± 0.05 mm^3 drops. Twenty flies were treated at each dosage, each test compound was applied at 8 to 10 dosage levels. Each test was replicated three times. […] A one-inch square of cotton saturated with 40% sugar solution was provided for food in each carton. The cartons of flies were held in a constant temperature chamber at 60° F and 60% relative humidity for 24 hours before mortality counts were made. Flies totally unable to make crawling or walking movements were counted as dead. LD50 values were calculated in the conventional manner.

confused flour beetle [17] = assay: Initial contact activity, confused flour beetle; format: in vivo; conditions: Tribolium confusum; 1250 ppm, 48 h exposure; read-out: % Kill, FB (initial contact)
Experimental: as §1

plum curculio [18] = assay: Initial contact activity, plum curculio; conditions: Conotrachelus nenuphar, 48 h, read-out: % Kill, PC (initial contact)
pea aphid [19] = assay: Residual contact activity, pea aphid; conditions: Acyrthosiphon pisum, 48 h, read-out: % Kill, PA (residual contact)
pea aphid [20] = assay: Initial contact activity, pea aphid; conditions: Acyrthosiphon pisum, 48 h, read-out: % Kill, PA (initial contact)
[21] = 39 ppm soil watering, separate test vs carbofuran
[22] = 39 ppm soil watering, group printed before the slash (separate test vs carbofuran)

SMILES | mortality at 1250 ppm (granary weevil [1]) [%] | mortality at 1250 ppm (granary weevil [2]) [%] | % Kill, AW (residual contact) (southern army worm [3]) [%] | mortality at 1250 ppm (milkweed bug [4]) [%] | mortality at 1250 ppm (two-spotted spider mite [5]) [%] | mortality at 1250 ppm (Mexican bean beetle [6]) [%] | mortality at 39 ppm (pea aphid [7]) [%] | mortality at 1250 ppm (milkweed bug [8]) [%] | mortality at 1250 ppm (Mexican bean beetle [9]) [%] | % Kill, AW (initial contact) (southern army worm [10]) [%] | mortality at 39 ppm (Mexican bean beetle [12]) [%] | mortality at 156 ppm (Mexican bean beetle [12]) [%] | mortality at 1250 ppm (two-spotted spider mite [13]) [%] | mortality at 1250 ppm (plum curculio [14]) [%] | mortality at 39 ppm (two-spotted spider mite [15]) [%] | mortality at 156 ppm (two-spotted spider mite [15]) [%] | LC50 (Culex fatigans) [ng/mL] | LD50 at 48 h (in vivo) [mg/kg] | % Kill, AW (systemic) (southern army worm [16]; 156 ppm soil watering) [%] | LD50 (houseflies) [mg/kg] | also measured
Cc1ccccc1SN(C)C(=O)Oc1cccc2c1OC(C)(C)C2 [Example II, 2,3-Dihydro-2,2-dimethyl-7-benzofuranyl (methyl)(2-methylphenylthio)carbamate] | 100 | 100 | 100 | 100 | 13 | 100 | 100 | 100 | 100 | 100 | 100 | 100 | 28 | 100 | 5 | 5 | 4 (≈ 11.6 nM) | 100 to 125 | 100 | 3.7 | mortality at 1250 ppm (confused flour beetle [11]): 98%; % Kill, AW (systemic) (southern army worm [16]; [21]): 85%; mortality at 1250 ppm (confused flour beetle [17]): 98%; mortality at 1250 ppm (plum curculio [18]): 100%
CN(Sc1ccc(C(C)(C)C)cc1)C(=O)Oc1cccc2c1OC(C)(C)C2 [Example III, 2,3-Dihydro-2,2-dimethyl-7-benzofuranyl (4-tert-butylphenylthio)(methyl)carbamate] | 100 | 100 | 31 | 100 | 2 | 100 | 5 | 100 | 100 | 100 | 56 | 100 | 27 | 95 | 1 | 4 | 2.5 (≈ 6.48 nM) | 75 | 0 | 2.7 | mortality at 156 ppm (pea aphid [7]): 43%; mortality at 1250 ppm (confused flour beetle [11]): 100%; % Kill, AW (systemic) (southern army worm [16]; [21]): 0%; mortality at 1250 ppm (confused flour beetle [17]): 100%; mortality at 1250 ppm (plum curculio [18]): 100%
Cc1cc(Br)ccc1SN(C)C(=O)Oc1cccc2c1OC(C)(C)C2 [XI, 2,3-Dihydro-2,2-dimethyl-7-benzofuranyl (4-bromo-2-methylphenylthio)(methyl)carbamate] | 100 | 100 | 100 | 100 | 3 | 100 | 100 | 95 | 100 | 100 | 95 | 100 | 9 | 40 | 23 | 28 | 2.5 (≈ 5.92 nM) | 100 to 150 | 100 | 11.2 | mortality at 1250 ppm (pea aphid [19]): 10%; mortality at 156 ppm (pea aphid [7]): 100%; mortality at 1250 ppm (pea aphid [20]): 35%; % Kill, AW (systemic) (southern army worm [16]; [22]): 75%; mortality at 1250 ppm (plum curculio [18]): 100%
CN(Sc1ccc2c(c1)OCO2)C(=O)Oc1cccc2c1OC(C)(C)C2 [XIV, 2,3-Dihydro-2,2-dimethyl-7-benzofuranyl (methyl)(3,4-methylenedioxyphenylthio)carbamate] | 100 | 100 | 100 | 100 | 2 | 100 | 100 | 100 | 100 | 100 | 90 | 94 | 38 | 80 | 10 | 16 | 6.5 (≈ 17.4 nM) | 10 to 25 | 64 | 5 | mortality at 1250 ppm (pea aphid [19]): 10%; mortality at 156 ppm (pea aphid [7]): 100%; mortality at 1250 ppm (pea aphid [20]): 100%; % Kill, AW (systemic) (southern army worm [16]; [22]): 14%; mortality at 1250 ppm (plum curculio [18]): 100%
